In patent publication US20070270418A1, “Inhibitors of P38 and Methods of Using the Same” (priority 2003, published 2007) one finds IC50 data, which are given here for 44 compounds.

Assay [1] concerns TNFα release from THP-1 cells. Briefly: TNFα release from LPS-stimulated THP-1 cells. The format is cell-based. Particulars: LPS 10 μg/ml, 18 hours, read-out: TNFα (THP-1) IC50. The source says:
Compounds of the invention are screened for the ability to inhibit TNFα and IL-1β release from THP-1 cells stimulated with lipopolysaccharide (LPS) in vitro. The ability of compounds to inhibit TNFα and IL-1β release in this in vitro assay is correlated with the inhibition of p38 activity and TNFα and IL-1β expression in vivo, and is therefore an indicator of potential in vivo therapeutic activity (Lee J. C. et al, Ann. N.Y. Acad. Sci. 696: 149-170, 1993 and Nature, 372: 739-746, 1994).
THP-1 cells from ATCC (TIB202) are maintained at 37° C., 5% CO2 in RPMI 1640 media (MediaTech, Herndon, Va.) containing 4.5 g/L glucose, supplemented with 10% fetal bovine serum, 1% penicillin/streptomycin and 50 μM β-mercaptoethanol.
Test compounds are initially dissolved in RPMI media with 1% DMSO (v/v). Compounds are then serially diluted in RPMI media for all subsequent dilutions. The assay is performed under sterile conditions. THP-1 cells at a culture density of 6-8×10^5 cells/ml are collected and resuspended in the RPMI media at 10^6 cells/ml. 100 μl of resuspended cells are added to each well, which contain 100 μl of a test compound. Test compounds are prepared at twice the final concentration. Final DMSO concentration is no more than 0.5% (v/v). Cells are preincubated with compound for 30 minutes at 37° C., 5% CO2 prior to stimulation with lipopolysaccharide (LPS) (Sigma L-2880, 4 mg/ml stock in PBS). The final LPS concentration in each well is 10 or 30 μg/ml for TNFα and IL-1β release, respectively. Unstimulated control cell suspensions receive PBS vehicle only. Cell mixtures are incubated for 18 or 48 hours for TNFα and IL-1β release, respectively. 150 μl of supernatants are taken and transferred to a fresh plate and stored at −20° C. until further analysis.

The next assay has as its target T1, p38α (Homo sapiens, UniProt Q16539).
T1 construct: p38 MAP Kinases are recombinant human full-length proteins with an amino-terminal GST fusion; GST (N); purchased Upstate (Charlottesville, Va.); host or cells: E. coli
Briefly: p38 MAP Kinase assay, ATF2 phosphorylation (ELISA). The format is biochemical. Particulars: 40 μM ATP. The source says:
Compounds of the invention are screened for the ability to inhibit ATF2 phosphorylation by p38 MAP Kinase in vitro. The ability of compounds to inhibit ATF2 phosphorylation in this in vitro assay is correlated with the inhibition of p38 MAP Kinase and TNFα expression in vivo, and is therefore an indicator of potential in vivo therapeutic activity (Raingeaud, J., et al, J. Biol. Chem., 270: 7420-7426, 1995, Brinkman, M. N., et al, J. Bil. Chem. 274: 30882-30886, 1999 and Fuchs, S. Y. et al, J. Biol. Chem. 275: 12560-12564, 2000).
All kinases and the substrate ATF2 are acquired from Upstate (Charlottesville, Va.). p38 MAP Kinases are recombinant human full-length proteins with an amino-terminal GST fusion, expressed in and purified from E. coli. ATF2 is a GST fusion protein containing amino acids 19-96 of human ATF2 expressed in E. coli. All proteins were aliquoted and stored at −80° C.
p38 MAP Kinase assays are performed using an assay buffer containing 25 mM HEPES, pH 7.5, 10 mM MgCl2, 2 mM DTT, 20 mM β-glycerophosphate, 0.1 mM Na3VO4, 40 μM ATP and 1.25 μM of ATF2, together with 6 ng of p38α protein, 12 ng p38β protein, 1.5 ng p38γ, or 0.4 ng JNK2α2. Compounds are serially diluted in DMSO and 2 μL of test compound at 25× final concentration is used. The vehicle control receives DMSO only. Test compounds are pre-incubated with 20 μl of enzyme in kinase buffer (25 mM HEPES, pH 7.5, 10 mM MgCl2, 2 mM DTT, 20 mM 3-glycerophosphate and 0.1 mM Na3VO4) at room temperature for 15 minutes. […] The reactions are incubated for 30 minutes at 37° C. and terminated by the addition of 18 μl of 200 mM EDTA. An ELISA method is used to measure the phosphorylation of ATF2 at Thr 69. High binding 96-well plates (Corning 3369) are coated with 50 μl of kinase reaction for 1 hour at 37° C. The coated plates are washed with 200 μl washing buffer (25 mM Tris HCl, pH 8.3, 192 mM glycine, 0.1% SDS and 0.05% Tween-20) three times. The plates are then washed three times with SuperBlock in TBS (Pierce, 37535). After blocking, plates are incubated with 50 μl of rabbit anti-phospho-ATF2 antibody (Cell Signaling, 9221 L, 1:500) for 30 minutes at 37° C. Plates are washed three times with washing buffer prior to incubation with 50 μl HRP-conjugated goat anti-rabbit antibody (Cell Signaling, 7074, 1:500) for 30 minutes at 37° C. Plates are then washed three times with washing buffer before incubation with 50 μl of Ultra TMB-ELISA (Pierce, 34028) for 8 minutes at room temperature. Finally, 50 μl of phosphoric acid (1 M) is added to stop reactions and plate absorbance is read at 450 nm on a SpectraMax 250 plate reader.
Background: In an ELISA, binding on a coated surface is turned into a signal by an enzyme label.

Where two headings read alike, the source gives them in different places.

T1 sequence (Q16539 whole entry, the tested form may be a part): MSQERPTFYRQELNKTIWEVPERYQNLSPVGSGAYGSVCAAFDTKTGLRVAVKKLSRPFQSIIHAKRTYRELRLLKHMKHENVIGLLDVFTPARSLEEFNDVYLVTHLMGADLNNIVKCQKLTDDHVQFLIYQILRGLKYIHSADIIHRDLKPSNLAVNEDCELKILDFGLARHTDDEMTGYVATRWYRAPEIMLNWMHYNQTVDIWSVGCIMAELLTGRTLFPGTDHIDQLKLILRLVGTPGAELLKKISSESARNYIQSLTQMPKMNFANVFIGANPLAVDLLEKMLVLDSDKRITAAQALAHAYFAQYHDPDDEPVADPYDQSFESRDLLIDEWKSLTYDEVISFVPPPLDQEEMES

Usually IC50 stands for the midpoint of a concentration-inhibition curve. With `Fc1ccc(-c2nc3occn3c2-c2ccnc(N3CCOCC3)n2)cc1` [XCIX], the IC50 in assay [1] (Homo sapiens, THP-1, 18 h) is 854 nM; against p38α it was 71.1 nM.
With `CC(C)[C@@H](CO)Nc1nccc(-c2c(-c3ccc(Br)cc3)nc3sccn23)n1` [CCLXXI], the figures for the IC50 (in assay [1]; on p38α) were 100 nM and 75.7 nM, respectively.
In the case of `CC(CO)CCNc1nccc(-c2c(-c3ccc(F)cc3)nc3occn23)n1` (centres unmarked) [XXXV], the IC50 turned out to be 17.9 nM in assay [1] (Homo sapiens, THP-1, 18 h) and 17.9 nM against p38α.
For `CC(C)(C)OC(=O)N1CCC(Nc2nccc(-c3c(-c4ccc(F)cc4Cl)nc4occn34)n2)CC1` [CCLXXXIV], the IC50 in assay [1] (Homo sapiens, THP-1, 18 h) amounted to 96.2 nM; against p38α, 1.4 nM.
As for `OCCNc1nccc(-c2c(-c3ccc(F)cc3)nc3occn23)n1` [XIV], the IC50 in assay [1] (Homo sapiens, THP-1, 18 h) worked out at 338 nM; against p38α, 41.6 nM.
For `Oc1ccc(CCNc2nccc(-c3c(-c4ccc(F)cc4)nc4sccn34)n2)cc1` [CCXXXIX], the IC50 stood at 21 nM in assay [1] (Homo sapiens, THP-1, 18 h) and 5.82 nM against p38α.
The like results for `OC1(CNc2nccc(-c3c(-c4ccc(F)cc4)nc4sccn34)n2)CCCCC1` [CCL] were, in that order, 15.5 nM and 27.2 nM.
The like results for `OC(CNc1nccc(-c2c(-c3ccc(F)cc3)nc3occn23)n1)COc1ccccc1` (centres unmarked) [CXX] were, in that order, 171 nM and 36.5 nM.
On the same counts, the results for `Fc1ccc(-c2nc3occn3c2-c2ccnc(N[C@H]3CN4CCC3CC4)n2)c(Cl)c1` [CCXCV] are 8.7 nM and 9.7 nM.
Take `COc1ccc(CCNc2nccc(-c3c(-c4ccc(F)cc4)nc4occn34)n2)cc1` [CXIII]: the half-maximal inhibitory concentration (IC50) in assay [1] (Homo sapiens, THP-1, 18 h) came out at 127 nM; against p38α, 7.88 nM.
For `OC(CNc1nccc(-c2c(-c3ccc(F)cc3)nc3sccn23)n1)COc1ccccc1` (centres unmarked) [CCLI], the IC50 in assay [1] (Homo sapiens, THP-1, 18 h) was 84.9 nM; on p38α it was 14.3 nM.
The like results for `Fc1ccc(-c2nc3sccn3c2-c2ccnc(NCc3nc4ccccc4[nH]3)n2)cc1` [CCXL] were, in that order, 3300 nM and 135 nM.
The like results for `Fc1ccc(-c2nc3occn3c2-c2ccnc(NCCCn3ccnc3)n2)cc1` [LVI] were, in that order, 96.9 nM and 14 nM.
On the same counts, the results for `OCCN(CCO)CCNc1nccc(-c2c(-c3ccc(F)cc3)nc3occn23)n1` [LXXVIII] are 318 nM and 370 nM.
With `Fc1ccc(-c2nc3occn3c2-c2ccnc(NCCN3CCOCC3)n2)cc1` [LXVI], the IC50 in assay [1] (Homo sapiens, THP-1, 18 h) was 193 nM; against p38α, 75.9 nM.
Take `COCC(C)Nc1nccc(-c2c(-c3ccc(F)cc3)nc3sccn23)n1` (centres unmarked) [CCXV]: the IC50 in assay [1] (Homo sapiens, THP-1, 18 h) stood at 8.58 nM; at p38α it was 2.32 nM.
On the same counts, the results for `CC[C@@H](CO)Nc1nccc(-c2c(-c3ccc(F)cc3)nc3occn23)n1` [XXII] are 18.6 nM and 3.7 nM.
The like results for `CN(C)CCCNc1nccc(-c2c(-c3ccc(F)cc3)nc3occn23)n1` [XXXVIII] were, in that order, 168 nM and 343 nM.
Take `O=C(c1ccc(F)cc1)N1CCC(Nc2nccc(-c3c(-c4ccc(F)cc4)nc4sccn34)n2)CC1` [CCLII]: the IC50 amounted to 21.9 nM in assay [1] (Homo sapiens, THP-1, 18 h) and 2.02 nM against p38α.
The like results for `Fc1ccc(-c2nc3occn3c2-c2ccnc(NC[C@H]3CCCO3)n2)cc1` [XLV] were, in that order, 11.2 nM and 11.7 nM.
The like results for `Oc1ccc(C(O)CNc2nccc(-c3c(-c4ccc(F)cc4)nc4sccn34)n2)cc1` (centres unmarked) [CCXII] were, in that order, 24.1 nM and 8.81 nM.
On the same counts, the results for `OCCOCCNc1nccc(-c2c(-c3ccc(F)cc3)nc3occn23)n1` [XL] are 93 nM and 79 nM.
`CC(CO)(CO)Nc1nccc(-c2c(-c3ccc(F)cc3)nc3occn23)n1` [LXXXII]: the IC50 came out at 50.5 nM in assay [1] (Homo sapiens, THP-1, 18 h) and 184 nM on p38α.
Regarding `Cc1ccc(-c2nc3sccn3c2-c2ccnc(N[C@H](CO)C(C)C)n2)cc1` [CCLXXVII], the figures for the IC50 (in assay [1]; against p38α) were 58.7 nM and 147 nM, respectively.
As to `CC(C)[C@@H](CO)Nc1nccc(-c2c(-c3ccc(F)cc3)nc3occn23)n1` [XII], the IC50 in assay [1] (Homo sapiens, THP-1, 18 h) was found to be 11.8 nM; on p38α, 16.7 nM.
As for `COc1cccc(-c2nc3sccn3c2-c2ccnc(N[C@H](CO)C(C)C)n2)c1` [CCLXX], the IC50 amounted to 93.5 nM in assay [1] and 112 nM against p38α.
Take `Cc1ccccc1-c1nc2occn2c1-c1ccnc(NCC(C)(C)CN(C)C)n1` [CCXCVIII]: the half-inhibitory concentration (IC50) is 85.1 nM in assay [1] (Homo sapiens, THP-1, 18 h) and 52.2 nM against p38α.
Turning to `CC(C)CNc1nccc(-c2c(-c3ccc(F)cc3)nc3sccn23)n1` [CXLII], the IC50 against p38α stood at 1.97 nM.
Still for that read-out and setting: the value for `CC(C)[C@@H](Nc1nccc(-c2c(-c3ccc(F)cc3)nc3sccn23)n1)C(=O)O` [CLXXIV] was 671 nM; that for `CCOCCCNc1nc(N)cc(-c2c(-c3ccc(F)cc3)nc3sccn23)n1` [CCXXVI] was 766 nM.
On to `COc1cccc(-c2nc3sccn3c2-c2nc(SC)ncc2-c2ccccc2)c1` [CCXXXIV], for which the IC50 in assay [1] (Homo sapiens, THP-1, 18 h) is over 10000 nM.
In the case of `OCC(CO)Nc1nccc(-c2c(-c3cccc(F)c3)nc3sccn23)n1` [CCVIII], the IC50 against p38α is 971 nM.
Take `Fc1ccc(-c2nc3sccn3c2-c2ccnc(NCc3ccco3)n2)cc1` [CXLIII]: 8.22 nM corresponded to half-maximal inhibition against p38α (IC50).
Still for that read-out and setting: the value for `CC[C@H](C)C(Nc1nccc(-c2c(-c3ccc(F)cc3)nc3sccn23)n1)C(=O)OC` (some centres unmarked) [CLXX] was 13.4 nM; that for `CCOC(=O)Cc1csc2nc(-c3ccc(F)cc3)c(-c3ccnc(N4CCCCC4)n3)n12` [CLXIV] was 1000 nM.
For the compound `OCCCNc1nccc(-c2c(-c3ccccc3)nc3sccn23)n1` [CLVIII], on p38α, the IC50 was determined as 21.8 nM.
`CSc1nccc(-c2c(-c3ccc(F)cc3)nc3sc(C)cn23)n1` [CXCI]: the IC50 against p38α stood at 741 nM.
On the same count and under the same terms, next, `Nc1cc(-c2c(-c3ccc(F)cc3)nc3sccn23)nc(NCCc2ccncc2)n1` [CCXXVIII]: 960 nM; `CN1CCCC1CCNc1nccc(-c2c(-c3ccc(F)cc3)nc3occn23)n1` (centres unmarked) [LXI]: 650 nM.
Same read-out and setting: next, `CCOC(=O)Cc1csc2nc(-c3ccc(F)cc3)c(-c3ccnc(SC)n3)n12` [CLIV]: 1000 nM.
Still for that read-out and setting: next, `CC(C)(CO)CNc1nc(N)cc(-c2c(-c3ccc(F)cc3)nc3sccn23)n1` [CCXXIX]: 1030 nM; `Cc1csc(Nc2nccc(-c3c(-c4ccc(F)cc4)nc4occn34)n2)n1` [LXXII]: 664 nM; `CC(C)[C@@H](CO)Nc1nccc(-c2c(-c3ccc4c(c3)OCCO4)nc3sccn23)n1` [CCIII]: 1410 nM.
Consider `Fc1ccc(CNc2nccc(-c3c(-c4ccccc4)nc4sccn34)n2)cc1` [CXXXVI], for which the midpoint of inhibition at p38α, the IC50, lay at 150 nM.
